{"source": "patent US9732070B2", "about": "“Protein kinase C inhibitors and uses thereof” (Rigel Pharmaceuticals, Inc., priority 2009, dated 2017)", "system": "Human primary T cells", "experiment": "IL-2 ELISA, human primary T cell, anti-CD3+CD28 stimulation", "type": "cell-based", "details": "IL-2 quantified by ELISA, human primary T cells stimulated with αCD3 and αCD28, 24 hours", "method": "Human primary T cell isolation and culture: Human primary T cells were prepared as follows. Whole blood was obtained from a healthy volunteer, mixed 1:1 with PBS, layered on to Ficoll Hypaque (Amersham Pharmacia Biotech, Piscataway, N.J., Catalog #17-1440-03) in 2:1 blood/PBS:ficoll ratio and centrifuged for 30 minutes at 4° C. at 1750 rpm. The cells at the serum: ficoll interface were recovered and washed twice with 5 volumes of PBS. These freshly isolated human peripheral blood mononuclear cells were cultured in Yssel's medium containing 40 U/mL IL2 in a flask pre-coated with 1 μg/mL αCD3 and 5 μg/mL αCD28 (Anti-Human CD3, BD Pharmingen Catalog #555336, Anti-Human CD28, Beckman Coulter Catalog #IM1376). The cells were stimulated for 3-4 days, then transferred to a fresh flask and maintained in RPMI (RPMI-1640 with L-Glutamine; Mediatech, Inc., Herndon Va., cat. #10-040-CM) with 10% FBS and 40 U/mL IL-2. The primary T-cells were then washed twice with PBS to remove the IL-2.\nPrimary T cell stimulation and IL2 ELISA: Human primary T cells (100,000 cells per well) were pre-incubated with or without test compound in Yssel's medium for 1 hour at 37° C. Cells were then stimulated by transferring them to round-bottom 96-well plates pre-coated with 1 μg/ml αCD3 and 5 μg/ml αCD28. For counter assay, cells were instead stimulated by adding 8× stock solutions of PMA and ionomycin in Yssels (for final concentrations of 0.5 ng/ml PMA and 0.1 uM ionomycin, both from Calbiochem). Cells were incubated at 37° C. for 24 hours before 100 μL supernatants were harvested for quantification of IL-2 by ELISA using Human IL-2 Duoset ELISA Kit from R and D Systems, Cat. # DY202E.", "data": [{"smiles": "CC(C)Oc1c(-n2nnn(C)c2=O)cc(Nc2ncc(F)c(NC3CC(C)(C)NC(C)(C)C3)n2)cc1C(F)(F)F", "note": "[I-51, N2-(4-isopropoxy-3-(4-methyl-4,5-dihysro-5-oxo-1H-tetrazol-1-yl)-5-trifluoromethylphenyl)-5-fluoro-N4-(2,2,6,6-tetramethylpiperidin-4-yl)pyrimidine-2,4-diamine]", "values": [{"measurement": "IC50", "result": "< 500", "unit": "nM"}]}, {"smiles": "CC(C)Oc1c(-n2nnn(C)c2=O)cc(Nc2ncc(F)c(NC3CC(C)(C)N(C)C(C)(C)C3)n2)cc1C(F)(F)F", "note": "[I-52, N2-(4-isopropoxy-3-(4-methyl-4,5-dihysro-5-oxo-1H-tetrazol-1-yl)-5-trifluoromethylphenyl)-5-fluoro-N4-(1,2,2,6,6-pentamethylpiperidin-4-yl)pyrimidine-2,4-diamine]", "values": [{"measurement": "IC50", "result": "< 500", "unit": "nM"}]}, {"smiles": "Cc1c(-n2nnn(C)c2=O)cc(Nc2ncc(F)c(NC3CC(C)(C)NC(C)(C)C3)n2)cc1C(F)(F)F", "note": "[I-53, N2-(4-methyl-3-(4-methyl-4,5-dihydro-5-oxo-1H-tetrazol-1-yl)-5-trifluoromethylphenyl)-5-fluoro-N4-(2,2,6,6-tetramethylpiperidin-4-yl)pyrimidine-2,5-diamine]", "values": [{"measurement": "IC50", "setting": "T-cell", "result": "< 500", "unit": "nM"}]}, {"smiles": "Cc1c(-n2nnn(C)c2=O)cc(Nc2ncc(F)c(NC3CC(C)(C)N(C)C(C)(C)C3)n2)cc1C(F)(F)F", "note": "[I-54, N2-(4-methyl-3-(4-methyl-4,5-dihysro-5-oxo-1H-tetrazol-1-yl)-5-trifluoromethylphenyl)-5-fluoro-N4-(1,2,2,6,6-pentamethylpiperidin-4-yl)pyrimidine-2,4-diamine]", "values": [{"measurement": "IC50", "setting": "T-cell", "result": "< 500", "unit": "nM"}]}, {"smiles": "Cc1c(Cl)cc(Nc2ncc(F)c(NC3CC(C)(C)NC(C)(C)C3)n2)cc1-n1nnn(C)c1=O", "note": "[I-55, N2-(5-chloro-4-methyl-3-(4-methyl-4,5-dihysro-5-oxo-1H-tetrazol-1-yl)phenyl)-5-fluoro-N4-(2,2,6,6-tetramethylpiperidin-4-yl)pyrimidine-2,4-diamine]", "values": [{"measurement": "IC50", "setting": "T-cell", "result": "< 500", "unit": "nM"}]}, {"smiles": "Cc1c(Cl)cc(Nc2ncc(F)c(NC3CC(C)(C)N(C)C(C)(C)C3)n2)cc1-n1nnn(C)c1=O", "note": "[I-56, N2-(5-chloro-4-methyl-3-(4-methyl-4,5-dihydro-5-oxo-1H-tetrazol-1-yl)phenyl)-5-fluoro-N4-(1,2,2,6,6-pentamethylpiperidin-4-yl)pyrimidine-2,4-diamine]", "values": [{"measurement": "IC50", "setting": "T-cell", "result": "< 500", "unit": "nM"}]}, {"smiles": "Cn1nnn(-c2cc(Nc3ncc(C(N)=O)c(NC4CC(C)(C)NC(C)(C)C4)n3)cc(F)c2C2CC2)c1=O", "note": "[I-57, N2-(4-cyclopropyl-5-fluoro-3-(4-methyl-4,5-dihydro-5-oxo-1H-tetrazol-1-yl)phenyl)-N4-(2,2,6,6-tetramethylpiperidin-4-yl)pyrimidine-2,4-diamino-5-carboxyamide]", "values": [{"measurement": "IC50", "setting": "T-cell", "result": "< 500", "unit": "nM"}]}, {"smiles": "Cn1nnn(-c2cc(Nc3ncc(F)c(NC4CC(C)(C)NC(C)(C)C4)n3)ccc2C#N)c1=O", "note": "[I-58, N2-(4-cyano-3-(4-methyl-4,5-dihydro-5-oxo-1H-tetrazol-1-yl)phenyl)-5-fluoro-N4-(2,2,6,6-tetramethylpiperidin-4-yl)pyrimidine-2,4-diamine]", "values": [{"measurement": "IC50", "setting": "T-cell", "result": "< 500", "unit": "nM"}]}, {"smiles": "Cn1nnn(-c2cc(Nc3ncc(F)c(NC4CC(C)(C)NC(C)(C)C4)n3)cc(F)c2C2CC2)c1=O", "note": "[I-59, 1-(2-cyclopropyl-3-fluoro-5-(5-fluoro-4-(2,2,6,6-tetramethylpiperidin-4-ylamino)pyrimidin-2-ylamino)phenyl)-4-methyl-1H-tetrazol-5(4H)-one]", "values": [{"measurement": "IC50", "setting": "T-cell", "result": "< 500", "unit": "nM"}]}, {"smiles": "COC(=O)c1cc(Nc2ncc(F)c(NC3CC(C)(C)NC(C)(C)C3)n2)cc(-n2nnn(C)c2=O)c1C", "note": "[I-60, Methyl 5-((5-fluoro-4-((2,2,6,6-tetramethylpiperidin-4-yl)amino)-2-pyrimidinyl)amino)-2-methyl-3-(4-methyl-4,5-dihysro-5-oxo-1H-tetrazol-1-yl)benzoate]", "values": [{"measurement": "IC50", "setting": "T-cell", "result": "< 500", "unit": "nM"}]}, {"smiles": "Cc1c(C(=O)O)cc(Nc2ncc(F)c(NC3CC(C)(C)NC(C)(C)C3)n2)cc1-n1nnn(C)c1=O", "note": "[I-61]", "values": [{"measurement": "IC50", "setting": "T-cell", "result": "3000 to 25000", "unit": "nM"}]}, {"smiles": "Cn1nnn(-c2cc(Nc3ncc(C#N)c(NC4CC(C)(C)NC(C)(C)C4)n3)cc(F)c2C2CC2)c1=O", "note": "[I-62, N2-(4-cyclopropyl-5-fluoro-3-(4-methyl-4,5-dihydro-5-oxo-1H-tetrazol-1-yl)phenyl)-N4-(2,2,6,6-tetramethylpiperidin-4-yl)pyrimidine-2,4-diamino-5-carbonitrile]", "values": [{"measurement": "IC50", "setting": "T-cell", "result": "< 500", "unit": "nM"}]}, {"smiles": "COC(=O)c1cc(Nc2ncc(F)c(NC3CC(C)(C)N(C)C(C)(C)C3)n2)cc(-n2nnn(C)c2=O)c1C", "note": "[I-63, Methyl 5-((5-fluoro-4-((1,2,2,6,6-pentamethylpiperidin-4-yl)amino)-2-pyrimidinyl)amino)-2-methyl-3-(4-methyl-4,5-dihysro-5-oxo-1H-tetrazol-1-yl)benzoate]", "values": [{"measurement": "IC50", "setting": "T-cell", "result": "< 500", "unit": "nM"}]}, {"smiles": "CNC(=O)c1cc(Nc2ncc(F)c(NC3CC(C)(C)N(C)C(C)(C)C3)n2)cc(-n2nnn(C)c2=O)c1C", "note": "[I-64, 5-(5-fluoro-4-(1,2,2,6,6-pentamethylpiperidin-4-ylamino)pyrimidin-2-ylamino)-N,2-dimethyl-3-(4-methyl-5-oxo-4,5-dihydro-1H-tetrazol-1-yl)benzamide]", "values": [{"measurement": "IC50", "setting": "T-cell", "result": "< 500", "unit": "nM"}]}, {"smiles": "Cc1c(C(=O)O)cc(Nc2ncc(F)c(NC3CC(C)(C)N(C)C(C)(C)C3)n2)cc1-n1nnn(C)c1=O", "note": "[I-65, 5-((5-fluoro-4-((1,2,2,6,6-pentamethylpiperidin-4-yl)amino)-2-pyrimidinyl)amino)-2-methyl-3-(4-methyl-4,5-dihydro-5-oxo-1H-tetrazol-1-yl)benzoic Acid]", "values": [{"measurement": "IC50", "setting": "T-cell", "result": "3000 to 25000", "unit": "nM"}]}, {"smiles": "CN1C(C)(C)CC(Nc2nc(Nc3ccc(F)c(-n4nnn(C)c4=O)c3F)ncc2F)CC1(C)C", "note": "[I-66, N2-(2,4-difluoro-3-(4-methyl-4,5-dihydro-5-oxo-1H-tetrazol-1-yl)phenyl)-5-fluoro-N4-(1,2,2,6,6-pentamethylpiperidin-4-yl)pyrimidine-2,4-diamine]", "values": [{"measurement": "IC50", "setting": "T-cell", "result": "3000 to 25000", "unit": "nM"}]}, {"smiles": "Cn1nnn(-c2cc(Nc3ncc(F)c(NC4CC(C)(C)NC(C)(C)C4)n3)c(F)cc2Cl)c1=O", "note": "[I-68]", "values": [{"measurement": "IC50", "setting": "T-cell", "result": "< 500", "unit": "nM"}]}]}
